The values below come from EPA's ToxRefDB 2.

The subject of data set [1] is rat. To be noted: Subchronic oral toxicity in rodents, fischer, Gavage/Intubation, dose end: 14 week, group: systemic.
Data set [2] has as its system mouse. To be noted: Carcinogenicity, b6c3f1, Oral, Gavage/Intubation, dose end: 105 week, group: systemic.
Data set [3] deals with mouse. To be noted: Subchronic oral toxicity in rodents, b6c3f1, Gavage/Intubation, dose end: 14 week, group: systemic.
Data set [4] relates to rat. To be noted: Carcinogenicity, fischer, Oral, Gavage/Intubation, dose end: 104 week, group: systemic.
Data set [5] has as its system rat. The note with it: Combined chronic toxicity/carcinogenicity, fischer, Dermal, Topical, dose end: 2 year, group: systemic.
Data set [6] deals with mouse. The note with it: Subchronic oral toxicity in rodents, b6c3f1, Dermal, Topical, dose end: 14 week, group: systemic.
The subject of data set [7] is rat. The note with it: Subchronic oral toxicity in rodents, fischer, Dermal, Topical, dose end: 14 week, group: systemic.
Data set [8] deals with mouse. To be noted: Carcinogenicity; b6c3f1; Dermal; Topical; dose end: 2 year; group: systemic; systemic / pathology microscopic / skin / hyperplasia.
The mark [9] stands for this setting: systemic / organ weight / kidney / relative to body weight.
Where [10] appears, read: systemic / organ weight / kidney / relative to body weight + systemic / clinical chemistry / alanine aminotransferase (alt/sgpt) / alanine ….
Setting [11] is: systemic / pathology microscopic / kidney / glomerulonephropathy + systemic / pathology microscopic / liver / [other] + systemic / pathology….
The mark [12] stands for this setting: systemic / pathology microscopic / liver / clear cell focus + systemic / pathology microscopic / nose / degeneration + systemic / pathology ….
The mark [13] stands for this setting: systemic / organ weight / liver / absolute + systemic / organ weight / liver / relative to body weight.
Where [14] appears, read: systemic / pathology microscopic / liver / basophilic focus + systemic / pathology microscopic / liver / fatty change + systemic / pathology….
[15] abbreviates: systemic / pathology microscopic / skin / hyperplasia.
Setting [16] is: systemic / in life observation / clinical signs / skin discoloration + systemic / organ weight / liver / absolute + systemic / organ weight….

Turning to `CC(C)=C1CC[C@@H](C)CC1=O` [R-(+)-Pulegone], the LEL in the data set on rat [1] (setting [9]) came to 9.38 mg/kg/day; in the data set with mouse [2] (setting [12]) it was 37.5 mg/kg/day; with mouse [3] (systemic / organ weight / liver / absolute) it was 18.8 mg/kg/day; in the data set with rat [4] (setting [14]), 18.8 mg/kg/day. For the same compound, the NEL in the data set on rat [1] (setting [9]) is less than 9.38 mg/kg/day; in the data set with mouse [2] (setting [12]) it was less than 37.5 mg/kg/day; in the data set with mouse [3] (setting [13]) it was 9.38 mg/kg/day; in the data set with rat [4] (setting [14]) it was less than 18.8 mg/kg/day. Further, the LOAEL in the data set with rat [1] (setting [10]) is more than 150 mg/kg/day; in the data set on mouse [2] (setting [11]) it was 75 mg/kg/day; in the data set with mouse [3] (setting [13]), more than 150 mg/kg/day; in the data set with rat [4] (systemic / pathology microscopic / kidney / glomerulonephropathy + systemic / pathology microscopic / liver / basophilic focus + systemic / …), 37.5 mg/kg/day. Further, the values for the NOAEL in the data set with rat [1] (setting [10]), with mouse [2] (setting [11]) and in the data set on mouse [3] (setting [13]) were not below 150 mg/kg/day, 37.5 mg/kg/day and not below 150 mg/kg/day, respectively.

With `Cc1ccc(S(=O)(=O)[O-])cc1C.[Na+]` [Sodium xylenesulfonate], the figures for the LEL in the data set on rat [5] (setting [15]), with mouse [6] (setting [15]) and in the data set on mouse [8] were 60 mg/kg/day, 170 mg/kg/day and 364 mg/kg/day, respectively. Further, the LOAEL with rat [5] (setting [15]) is 120 mg/kg/day; with mouse [6] (setting [15]), 1300 mg/kg/day; in the data set on rat [7] (setting [16]), more than 500 mg/kg/day; in the data set with mouse [8] it was 364 mg/kg/day. For the same compound, the NEL in the data set with rat [5] (setting [15]) was less than 60 mg/kg/day; in the data set with mouse [6] (setting [15]), 60 mg/kg/day; with rat [7] (systemic / in life observation / clinical signs / skin discoloration), 800 mg/kg/day; in the data set on mouse [8], 182 mg/kg/day. Moreover, the NOAEL in the data set with rat [5] (systemic / pathology microscopic / skin / hyperplasia + systemic / in life observation / clinical signs / [other]) was 60 mg/kg/day; in the data set with mouse [6] (systemic / pathology microscopic / skin / hyperplasia + systemic / in life observation / body weight / body weight gain), 440 mg/kg/day; with rat [7] (setting [16]), not below 500 mg/kg/day; with mouse [8], 182 mg/kg/day.
